What was measured:
Type in all cases: functional, cell-based
[1] = system: HL-60; assay: Induction of differentiation in human HL60 cells after 72 hrs by NBT assay
[2] = system: NB-4; assay: Antiproliferative activity against human NB4 cells after 72 hrs by MTT assay
[3] = system: HL-60; assay: Antiproliferative activity against human HL60 cells after 72 hrs by MTT assay
[4] = system: NB-4; assay: Induction of differentiation in human NB4 cells after 72 hrs by NBT assay

Measured: Activity

COc1ccc(Cn2c3c(c4cc(C)ccc4c2=O)C(C)c2ccccc2-3)cc1 (centres undefined)
active: [1] Dose-dependent effect | [2] Dose-dependent effect | [3] Dose-dependent effect | [4] Dose-dependent effect

Source: ChEMBL document CHEMBL1142285, “Indeno[1,2-c]isoquinolines as enhancing agents on all-trans retinoic acid-mediated differentiation of human myeloid leukemia cells” (2008)
